Measurements reported in ChEMBL document CHEMBL5038595, “Synthesis and Pharmacological Evaluation of Tetrahydro-γ-carboline Derivatives as Potent Anti-inflammatory Agents Targeting Cyclic GMP-AMP Synthase” (J Med Chem, 2021).
Calls of active or inactive are those of the source. The rule behind the calls is not given here.

What was measured:
[1] = Cytotoxicity against human THP1-Dual cells assessed as reduction in cell viability incubated for 24 hrs by CCK-8 assay; assay type: toxicity, cell-based
[2] = target: Cyclic GMP-AMP synthase (Homo sapiens, UniProt Q8N884); assay: Inhibition of human cGAS expressed in THP1-Dual cells transfected with HT-DNA assessed as suppression of lipofectamine 2000:ds-DNA complex induced activation of cGAS incubated for 1 hr by Quanti-luc reagent based assay; assay type: cell-based
[3] = Cytotoxicity against mouse RAW-Lucia ISG cells assessed as reduction in cell viability incubated for 24 hrs by CCK-8 assay; assay type: toxicity, cell-based
[4] = target: Cyclic GMP-AMP synthase (Mus musculus, UniProt Q8C6L5); assay: Inhibition of mouse cGAS expressed in RAW-Lucia ISG transfected with HT-DNA assessed as suppression of lipofectamine 2000:ds-DNA complex induced activation of cGAS incubated for 1 hr by Quanti-luc reagent based assay; assay type: cell-based
[5] = target: Stimulator of interferon genes protein (Homo sapiens) (UniProt Q86WV6); assay: Inhibition of STING-dependent cGAS activation in cGAMP treated human THP-1-Dual cells assessed as suppression of lipofectamine 2000:cGAMP-induced IRF luciferase expression at 10 uM incubated for 1 hr by Quanti-luc reagent based assay; assay type: cell-based
Chain of Stimulator of interferon genes protein (Homo sapiens) (Q86WV6 whole entry): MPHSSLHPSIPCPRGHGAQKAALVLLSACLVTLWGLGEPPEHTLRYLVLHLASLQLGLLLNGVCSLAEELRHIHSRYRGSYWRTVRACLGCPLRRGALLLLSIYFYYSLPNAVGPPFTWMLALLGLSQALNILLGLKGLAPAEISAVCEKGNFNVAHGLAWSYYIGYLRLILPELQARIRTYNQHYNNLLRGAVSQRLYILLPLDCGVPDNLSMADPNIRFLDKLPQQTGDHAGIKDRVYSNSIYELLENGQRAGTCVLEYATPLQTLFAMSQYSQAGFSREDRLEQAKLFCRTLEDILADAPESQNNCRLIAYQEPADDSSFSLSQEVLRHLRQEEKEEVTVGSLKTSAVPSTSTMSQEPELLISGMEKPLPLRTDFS

Chain of Cyclic GMP-AMP synthase (Mus musculus, UniProt Q8C6L5) (Q8C6L5 whole entry): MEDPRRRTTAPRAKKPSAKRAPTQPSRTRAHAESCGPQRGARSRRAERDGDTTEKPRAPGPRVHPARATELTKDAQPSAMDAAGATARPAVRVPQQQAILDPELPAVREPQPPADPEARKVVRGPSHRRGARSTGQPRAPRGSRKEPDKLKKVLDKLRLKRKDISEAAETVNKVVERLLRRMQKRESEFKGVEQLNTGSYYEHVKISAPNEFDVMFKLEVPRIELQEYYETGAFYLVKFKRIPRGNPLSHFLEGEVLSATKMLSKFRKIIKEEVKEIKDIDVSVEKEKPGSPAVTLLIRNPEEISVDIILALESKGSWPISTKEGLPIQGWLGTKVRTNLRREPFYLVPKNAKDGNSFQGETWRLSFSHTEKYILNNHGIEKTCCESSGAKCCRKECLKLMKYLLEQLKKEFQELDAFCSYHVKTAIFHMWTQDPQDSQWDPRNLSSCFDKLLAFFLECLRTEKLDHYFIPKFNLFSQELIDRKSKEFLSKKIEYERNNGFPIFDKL
Chain of Cyclic GMP-AMP synthase (Homo sapiens, UniProt Q8N884) (Q8N884 whole entry): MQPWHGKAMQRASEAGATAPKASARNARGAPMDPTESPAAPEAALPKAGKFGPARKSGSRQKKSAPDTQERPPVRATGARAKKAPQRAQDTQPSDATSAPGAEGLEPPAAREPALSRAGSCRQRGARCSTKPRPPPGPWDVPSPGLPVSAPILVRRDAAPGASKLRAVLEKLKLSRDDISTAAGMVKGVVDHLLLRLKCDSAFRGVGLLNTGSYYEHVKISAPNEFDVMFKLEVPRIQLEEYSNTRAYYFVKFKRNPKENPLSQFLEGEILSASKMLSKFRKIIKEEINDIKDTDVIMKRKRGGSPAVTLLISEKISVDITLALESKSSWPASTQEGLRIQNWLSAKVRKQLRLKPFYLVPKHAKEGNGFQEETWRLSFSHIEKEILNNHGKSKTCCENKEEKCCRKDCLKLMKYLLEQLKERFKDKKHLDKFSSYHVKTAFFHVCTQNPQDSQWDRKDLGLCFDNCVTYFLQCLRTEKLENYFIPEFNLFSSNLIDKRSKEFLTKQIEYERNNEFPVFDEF

| Compound | CC50 at 24 h [1] [µM] | IC50 [2] [µM] | CC50 at 24 h [3] [µM] | IC50 [4] [µM] | inhibition [5] |
| --- | --- | --- | --- | --- | --- |
| CN(C)CC(=O)N1CCc2[nH]c3c(Cl)c(Cl)cc(-c4ccn(C)n4)c3c2C1 | 30.4 | 21 | – | – | – |
| CC(=O)OCC(=O)N1CCC2=Nc3c(ccc(Cl)c3Cl)C2(Nc2cc(C(F)(F)F)cc(C(F)(F)F)c2)C1 (centres undefined) | 11 | 3.23 | 7.88 | 7.94 | – |
| O=C(CO)N1C[C@H]2[C@H]3O[C@]4(Nc5ccc(Cl)cc53)c3ccc(Cl)c(Cl)c3N[C@]24C1 (racemic) | > 50 | 38.2 | > 50 | 37.6 | – |
| O=C(CO)N1CCC2=Nc3c(ccc(Cl)c3Cl)C2(Nc2cc(F)cc(F)c2)C1 (centres undefined) | > 50 | > 50 | – | – | – |
| CNCC(=O)N1CCc2[nH]c3c(Cl)c(Cl)cc(-c4ccn(C)n4)c3c2C1 | 42.1 | 6.3 | > 50 | 21.9 | – |
| O=C(CO)N1CCC2=Nc3c(ccc(Cl)c3Cl)C2(Nc2ccc(C(F)(F)F)cc2)C1 (centres undefined) | 34.6 | 6.48 | 9.8 | 9.94 | Active |
| CC(=O)OCC(=O)N1CCC2Nc3c(ccc(Cl)c3Cl)C2(c2c[nH]c3ccccc23)C1 (centres undefined) | 32.9 | 5.49 | > 50 | 8.75 | – |
| CC(=O)OCC(=O)N1CCC2=Nc3c(ccc(Cl)c3Cl)C2(Nc2ccccc2C=O)C1 (centres undefined) | > 50 | 9.59 | – | – | – |
| Cn1ccc(-c2cc(Cl)c(Cl)c3[nH]c4c(c23)CN(C(=O)CNC(=O)[C@@H](N)Cc2cc[nH]n2)CC4)n1 | > 50 | 10.2 | – | – | – |
| Cn1ccc(-c2cc(Cl)c(Cl)c3[nH]c4c(c23)CN(C(=O)CN)CC4)n1 [listing 1 of 2 here] | – | – | – | – | inactive |
| CC(=O)OCC(=O)N1CCC2=Nc3c(ccc(Cl)c3Cl)C2(Nc2cccc(Cl)c2C=O)C1 (centres undefined) | 30.8 | 2.87 | > 50 | 11.1 | – |
| O=C(CO)N1CCC2=Nc3c(ccc(Cl)c3Cl)C2(Nc2cc(C(F)(F)F)cc(C(F)(F)F)c2)C1 (centres undefined) | 37.3 | 3.12 | 10.6 | 9.56 | Active |
| O=C(CO)N1CCC2Nc3c(ccc(Cl)c3Cl)C2(c2c[nH]c3ccccc23)C1 (centres undefined) | 42.8 | 4.07 | 34.9 | 8.42 | inactive |
| Cn1ccc(-c2cc(Cl)c(Cl)c3[nH]c4c(c23)CN(C(=O)CNC(=O)C2=C[C@H](O)[C@H](O)[C@@H](O)C2)CC4)n1 | > 50 | > 50 | – | – | – |
| Cn1ccc(-c2cc(Cl)c(Cl)c3[nH]c4c(c23)CN(C(=O)C2CC(O)C2)CC4)n1 (centres undefined) | > 50 | > 50 | – | – | – |
| Cn1ccc(-c2cc(Cl)c(Cl)c3[nH]c4c(c23)CN(C(=O)CNC(=O)C(C)(C)NC(=O)OC(C)(C)C)CC4)n1 | 49.2 | 8.21 | – | – | – |
| COc1ccc(OC)c2c1NC13CN(C(=O)CO)CCC21Nc1c3ccc(Cl)c1Cl (centres undefined) | > 50 | > 50 | > 50 | 20.1 | – |
| Cn1ccc(-c2cc(Cl)c(Cl)c3[nH]c4c(c23)CN(C(=O)CNC(=O)c2cccc(-c3noc(C(F)(F)F)n3)c2)CC4)n1 | > 50 | 10 | > 50 | 7.62 | – |
| Cn1ccc(-c2cc(Cl)c(Cl)c3[nH]c4c(c23)CN(C(=O)CNC(=O)C2CC(F)(F)CN2)CC4)n1 (single isomer, unassigned) | > 50 | 6.4 | 36.5 | 17.4 | – |
| Cn1ccc(-c2cc(Cl)c(Cl)c3[nH]c4c(c23)CN(C(=O)[C@@H]2CCCN2)CC4)n1 | 49.1 | 22.2 | – | – | – |
| Cn1ccc(-c2cc(Cl)c(Cl)c3[nH]c4c(c23)CN(C(=O)C2(N)COC2)CC4)n1 | > 50 | > 50 | – | – | – |
| CCOC(=O)c1ccc(NC23CN(C(=O)CO)CCC2=Nc2c3ccc(Cl)c2Cl)cc1 (centres undefined) | 52.5 | 39.4 | – | – | – |

| Compound | CC50 at 24 h [1] [µM] | IC50 [2] [µM] | CC50 at 24 h [3] [µM] | IC50 [4] [µM] | inhibition [5] |
| --- | --- | --- | --- | --- | --- |
| Cn1ccc(-c2cc(Cl)c(Cl)c3[nH]c4c(c23)CN(C(=O)CNC(=O)C2(N)CC2)CC4)n1 | > 50 | 13.5 | – | – | – |
| O=C(CO)N1CCC2=Nc3c(ccc(Cl)c3Cl)C2(c2c[nH]c3cc(F)cc(F)c23)C1 (centres undefined) | 10.4 | 12.9 | – | – | – |
| CC(=O)OCC(=O)N1CCC2=Nc3c(ccc(Cl)c3Cl)C2(c2c[nH]c3ccccc23)C1 (centres undefined) | 50 | 6.3 | > 50 | 9.73 | – |
| O=C(CO)N1CC=C2Nc3c(ccc(Cl)c3Cl)C2(Cl)C1 (centres undefined) | > 50 | > 50 | – | – | – |
| Cn1ccc(-c2cc(Cl)c(Cl)c3[nH]c4c(c23)CN(C(=O)CN2CCOCC2)CC4)n1 | > 50 | > 50 | – | – | – |
| Cc1cc(CC(=O)NCC(=O)N2CCc3[nH]c4c(Cl)c(Cl)cc(-c5ccn(C)n5)c4c3C2)no1 | > 50 | 9.45 | > 50 | 9.2 | – |
| Cc1ccc(OC(F)(F)C(=O)NCC(=O)N2CCc3[nH]c4c(Cl)c(Cl)cc(-c5ccn(C)n5)c4c3C2)cc1 | > 50 | 15.5 | > 50 | 6.69 | – |
| COc1ccccc1NC12CN(C(=O)CO)CCC1=Nc1c2ccc(Cl)c1Cl (centres undefined) | > 50 | > 50 | > 50 | 22.8 | – |
| Cn1ccc(-c2cc(Cl)c(Cl)c3[nH]c4c(c23)CN(C(=O)CNC(=O)C(C)(C)N)CC4)n1 | 12.3 | 10.5 | – | – | – |
| CC(=O)OCC(=O)N1CCC2=Nc3c(ccc(Cl)c3Cl)C2(Nc2ccc(Cl)cc2C=O)C1 (centres undefined) | 12.5 | 1.14 | 47.8 | 16.3 | Active |
| CC(=O)OCC(=O)N1CCC2=Nc3c(ccc(Cl)c3Cl)C2(Nc2ccc(C(F)(F)F)cc2C=O)C1 (centres undefined) | 10.1 | 2.72 | > 50 | 9.01 | Active |
| Cn1ccc(-c2cc(Cl)c(Cl)c3[nH]c4c(c23)CN(C(=O)OC(C(F)(F)F)C(F)(F)F)CC4)n1 | 50 | 19.2 | 43.3 | 3.23 | – |
| Cn1ccc(-c2cc(Cl)c(Cl)c3[nH]c4c(c23)CN(C(=O)C2CC(OC(F)F)C2)CC4)n1 (centres undefined) | 20.2 | 20.3 | – | – | – |
| O=C(CO)N1CCC2=Nc3c(ccc(Cl)c3Cl)C2(c2c[nH]c3cc(Cl)ccc23)C1 (centres undefined) | 24.4 | 8.59 | 10 | 22 | – |
| Cn1ccc(-c2cc(Cl)c(Cl)c3[nH]c4c(c23)CN(C(=O)CNC(=O)Cc2ccco2)CC4)n1 | 47.3 | 7.17 | 49.2 | 7.7 | – |
| Cn1ccc(-c2cc(Cl)c(Cl)c3[nH]c4c(c23)CN(C(=O)CN)CC4)n1 [listing 2 of 2 here] | 32.2 | 1.87 | 23.4 | 10.9 | – |
| Cn1ccc(-c2cc(Cl)c(Cl)c3[nH]c4c(c23)CN(C(=O)CNC(=O)[C@@H](N)O)CC4)n1 | 27.7 | 11 | – | – | – |
| Cn1ccc(-c2cc(Cl)c(Cl)c3[nH]c4c(c23)CN(C(=O)CNC(=O)CN2CCNCC2)CC4)n1 | 37.7 | 7.86 | – | – | – |
| O=C(CO)N1C[C@H]2[C@H]3O[C@]4(Nc5ccccc53)c3ccc(Cl)c(Cl)c3N[C@]24C1 (racemic) | > 50 | > 50 | – | – | – |
| COc1ccc2c(C34CN(C(=O)CO)CCC3=Nc3c4ccc(Cl)c3Cl)c[nH]c2c1 (centres undefined) | > 50 | 11.3 | – | – | – |
| CC(=O)NCC(=O)N1CCc2[nH]c3c(Cl)c(Cl)cc(-c4ccn(C)n4)c3c2C1 | > 50 | 37.7 | – | – | – |
| O=C(CO)N1CCC2=Nc3c(ccc(Cl)c3Cl)C2(c2c[nH]c3cc(F)ccc23)C1 (centres undefined) | 32.1 | 14.1 | – | – | – |
